“Also recorded” adds a separate entry of the source.
Assays:
Akt = experiment: Activation of Akt [pAkt(S473)] by obestatin in L6E9 myoblasts, immunoblot; assay type: cell-based, rat
Experimental: (§1) FIG. 1. Activation of regulatory enzymes of mitogenesis and myogenesis by obestatin in L6E9 myoblasts and myotubes. Effect of obestatin on activity of regulatory enzymes of the mitogenic capacity (ERK 1/2), metabolic capacity (Akt and AMPK) and myogenic capacity (Akt and p38). Based on a dose-response study, the saturating dose for the maximum enzymatic activation is established for a concentration of 5 nM. […] Inactivation of AMPK is described in both cell models. The activation profile discovers bimodal characteristics for the action of obestatin: 1.—mitogenic activation in myoblasts; and, 2.—myogenic activation. The immunoblots are representative of 6 independent assays.
(§2) The studies were performed based on the use of L6E9 rat myoblasts which were maintained in growth medium (GM) formed by DMEM (Dulbecco's Modified Eagle Medium) supplemented with 10% fetal bovine serum (FBS), 100 U/mL penicillin, and 100 U/mL streptomycin. For the differentiation, the cells were cultured at 80-100% of confluence in GM and it was replaced for differentiation medium (DM) formed by DMEM supplemented with 2% FBS, 100 U/mL penicillin, and 100 U/mL streptomycin during 6 days.
(§3) The tissue or cell samples were directly lysed in RIPA buffer [Tris-HCl (pH 7.2), 50 mM; NaCl, 150 mM; EDTA, 1 mM; NP-40, 1% (v/v); Sodium deoxycholate, 0.25% (w/v); protease inhibitors (Sigma); phosphatise inhibitors (Sigma)]. The lysates were clarified by centrifugation (14,000×g during 15 min at 4° C.) and the protein concentration was quantified using QuantiPro™ BCA assay kit (Sigma). For immunoblot, equal amounts of protein were loaded which were fractionated in SOS-PAGE gels and transferred to nitrocellulose membranes. The immunoreactive bands were detected by chemiluminescence (Pierce ECL Western Blotting Substrate; Thermo Scientific, Ill., USA).
To define the mitogenic and myogenic effect of obestatin, the activation capacity was studied of intracellular targets regulating proliferation (ERK1/2) and/or differentiation (p38 and Akt). […]

AMPKa = experiment: Dephosphorylation/inactivation of AMPKa [pAMPKa(T172)] by obestatin in L6E9 cells, immunoblot; assay type: cell-based, rat; details: obestatin 5 nM; L6E9 myoblasts (both cell models)
Experimental: as §1, with “assays. […]” for “assays.”
(§4) The tissue or cell samples were directly lysed in RIPA buffer [Tris-HCl (pH 7.2), 50 mM; NaCl, 150 mM; EDTA, 1 mM; NP-40, 1% (v/v); Sodium deoxycholate, 0.25% (w/v); protease inhibitors (Sigma); phosphatise inhibitors (Sigma)]. The lysates were clarified by centrifugation (14,000×g during 15 min at 4° C.) and the protein concentration was quantified using QuantiPro™ BCA assay kit (Sigma). […] The immunoreactive bands were detected by chemiluminescence (Pierce ECL Western Blotting Substrate; Thermo Scientific, Ill., USA). […]

L6E9 myotubes = experiment: Activation of regulatory enzymes by obestatin in L6E9 myotubes, immunoblot; assay type: cell-based, rat; details: obestatin 5 nM
Experimental: as §1, with “assays. […]” for “assays.”
as §4

[1] = tested on: L6E9 cells (rat myoblasts); experiment: Expression of myogenic markers myogenin and MHC in L6E9 cells in differentiation medium, immunoblot; assay type: cell-based; details: DM, six days
From the text: FIG. 3. Effect of obestatin on the expression of the myogenic markers myogenin and MHC in L6E9 myoblasts. Effect of the stimulation with different doses of obestatin (0.01-100) on the expression of the myogenic markers myogenin and myosin (MHC) 6 days after the induction of the differentiation by the use of differentiation medium (DM: DMEN+2% FBS). The protein expression levels refer to the levels of myoblasts in growth medium (GM: DMEN+10% FBS), non-differentiated. The data are represented as % with respect to the cell expression in GM (mean±standard error of 6 independent experiments). The evaluation of the degree of expression was performed by immunoblot by the use of the ImageJ64 program (*, p<0.05).
as §2, §3
The L6E9 cells were cultured in DM complemented with different concentrations of obestatin in a range of 0.01-100 nM during six days.

[2] = tested on: damaged tibialis anterior of mouse; experiment: Immunofluorescence analysis of eMHC expression in damaged tibialis anterior of mouse; assay type: in vivo, Swiss mice; details: 300 nmol/kg weight; 96 h
Experimental: FIG. 11. Immufluorescence analysis of the effect of the exogenous administration of obestatin (96 h) on eMHC expression in the damaged tibialis anterior of mouse (animal model). Representative images of eMHC expression by immunofluorescence of sections of the tibialis anterior treated with obestatin (300 nmol/kg/24 h) or PBS (control) 96 h after inducing the damage. The upper panels correspond to staining with anti-eMHC antibody and the lower panels to staining with DAPI.
(§5) For the tissue immunofluorescence analysis, frozen sections were obtained which were fixed using a buffered solution of PBS-paraformaldehyde during 15 min, washed, permeabilized and blocked with PBT during 30 min, and later incubated with the corresponding primary antibody (anti-eMHC, anti-laminin antibody) diluted in PBT (1:50) during 12 h at 4° C. After three washes with PBS, the tissue sections were incubated with secondary antibody in PBT (1:1000) during 45 min at 37° C. […] The digital images of the cell culture were acquired with a Leica TCS-SP2 confocal microscope.
(§6) The mice (30 g; n=50) were maintained in 12 h light-darkness cycled with free access to standard diet and water. To induce the muscle damage, the tibialis anterior muscle (TA) was extracted under anaesthesia and subjected to three cycles of damage due to cold contact applying along the length of the muscle a metal bar cooled in liquid nitrogen. […]

[3] = tested on: damaged tibialis anterior of mouse; experiment: Blood vessels (isolectin positive) per myofiber in damaged tibialis anterior of mouse; assay type: in vivo, Swiss mice; details: 300 nmol/kg/24 h; 10 days after induction of muscle damage
Experimental: FIG. 13. Quantification of the blood vessels per myofiber in the tibialis anterior 10 days after the induction of muscle damage and exogenous treatment of obestatin (300 nmol/kg/24 h) or vehicle (PBS). Quantification of the number of blood vessels (immunofluorescence: positivity to isolectin) per myofiber (mean±standard error; *, p<0.005) of sections of the tibialis anterior treated with obestatin (300 nmol/kg/24 h) or PBS (control) 10 days after inducing the damage.
as §5, §6

## obestatin
Akt
  obestatin concentration at which activation of Akt [pAkt(S473)] was observed: 0.1 nM
Akt; dose-response
  obestatin concentration at which pAkt(S473) phosphorylation levels reached saturable values: 5 nM
Akt; obestatin 5 nM
  time post-stimulation of maximum pAkt(S473) levels: 10 min
AMPKa
  effect on AMPKa phosphorylation in T172 [pAMPKa(T172)]: Inactivation; also recorded: dephosphorylates
L6E9 myotubes
  activation dynamics of Akt, p38, ERK1/2 and AMPKa compared with myoblasts: similar
[1]; 5 nM obestatin
  increase of MHC expression in relation to the control cells: −1.6
  increase of myogenin expression in relation to the control cells: −1.7
[1]; range 0.01-100 nM
  obestatin concentration of maximum effect on myogenin and MHC expression: 5 nM
[2]
  eMHC expression by immunofluorescence in relation to controls: significantly increases
[3]
  capillary density (isolectin-positive blood vessels per myofiber) in relation to vehicle (PBS): significant increase

From patent US20150094264A1, “USE OF OBESTATIN FOR MUSCLE REGENERATION” (UNIVERSIDADE DE SANTIAGO DE COMPOSTELA, priority 2012, published 2015)
